Experimental data as given in paper PMC9254107, “The Toxoplasma glucan phosphatase TgLaforin utilizes a distinct functional mechanism that can be exploited by therapeutic inhibitors” (The Journal of Biological Chemistry, 2022).
One block for each compound: values may come before it.

How the values were obtained:
TgCBM W278A = assay: Differential scanning fluorimetry carbohydrate binding; details: DSF
TgCBM K206A = assay: as above; details: DSF
TgCBM = TgCBM (Toxoplasma gondii, UniProt S8F2K7); assay: as above
Protocol: We next analyzed TgCBM using size-exclusion chromatography coupled with multiangle light scattering (SEC-MALS) to define its oligomerization state. […] To define TgCBM carbohydrate binding, we utilized differential scanning fluorimetry (DSF) ([53], [54]). In the presence of a carbohydrate, an increase in Tm is associated with increased protein stability due to protein–ligand interaction. We incubated TgCBM with the linear oligosaccharide maltohexaose and observed a robust dose-dependent stabilization of TgCBM with an Kd,app = 20 ± 4 mM (Fig. 3E).

TgLaforin [1] = target: T1, TgLaforin (Toxoplasma gondii, UniProt S8F2K7); assay: Malachite green phosphatase assay, phosphate release from solubilized potato amylopectin; type: biochemical
T1 sequence (S8F2K7 1-523): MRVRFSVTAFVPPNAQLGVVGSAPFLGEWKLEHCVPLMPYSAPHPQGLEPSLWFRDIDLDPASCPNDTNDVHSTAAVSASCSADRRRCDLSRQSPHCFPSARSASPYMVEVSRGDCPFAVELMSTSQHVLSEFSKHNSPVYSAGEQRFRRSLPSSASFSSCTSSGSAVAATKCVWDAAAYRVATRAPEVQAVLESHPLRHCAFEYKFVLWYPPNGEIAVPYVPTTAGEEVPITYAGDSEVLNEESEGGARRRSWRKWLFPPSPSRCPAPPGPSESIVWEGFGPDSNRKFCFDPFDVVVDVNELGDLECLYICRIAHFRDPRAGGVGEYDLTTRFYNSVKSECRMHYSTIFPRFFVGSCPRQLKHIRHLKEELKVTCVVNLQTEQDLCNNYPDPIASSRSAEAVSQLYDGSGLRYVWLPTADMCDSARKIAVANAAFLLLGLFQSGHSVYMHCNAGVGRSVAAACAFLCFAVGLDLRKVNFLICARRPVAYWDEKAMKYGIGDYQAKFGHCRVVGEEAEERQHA
Protocol: Release of phosphate from potato amylopectin was determined as done previously ([23], [24], [42], [93]) with the following modifications. Briefly, phosphate release was monitored using the PiColorLock Phosphate Detection Reagent (Novus Biologicals), a malachite green–based assay. For time course assays, 5 nM recombinant protein was incubated with 90 μg solubilized potato amylopectin (Sigma-Aldrich), supplied as a powder; solubilized at a stock concentration of 5 mg/ml using alcohol/alkaline method (also referred to as the “Roach method” in Ref. ([93])) in phosphatase buffer in a final volume of 80 μl at pH 6.5. […] After 5 min, 8 μl stabilizer solution (0.1 initial reaction volume) was added, and reaction was allowed to develop for 30 min at r.t. before the absorbance of each reaction was measured at 635 nm using a Synergy HTX Multi-Mode Reader (BioTek). Absorbance was converted to pmol Pi release using a Pi absorbance standard curve. […]
(§1) L319-M21-M49 stock solutions were prepared by resuspending the inhibitor in DMSO at a concentration of 20 mM. […] The efficacy of L319-M21-M49 against various phosphatases was determined using the assay conditions described above. […] All reported uncertainties in IC50 values were calculated and presented as standard deviation from the mean of at least three independent replicates, each consisting of three technical replicates. […]

TgLaforin [2] = target: T1, TgLaforin; assay: Radiolabeled (33P) starch phosphatase assay; type: biochemical; details: 33P-labeled insoluble starch
Protocol: Position-dependent phosphate release from ^33P-labeled starch was performed as previously described ([36], [41], [42], [43]). The substrate for this assay was generated by phosphorylating phosphate-free Arabidopsis sex1-3 starch with β^33P-labeled ATP (Hartmann Analytic) at the C6 and C3 positions sequentially. The starch granules were phosphorylated at the C6 position using purified recombinant StGWD enzyme. Next, the granules were phosphorylated at the C3 position using purified recombinant AtPWD enzyme.
To determine the site-specificity of TgLaforin, TgLaforin (1.3 nM) was incubated separately with 0.6 mg both C6- and C3-^33P-labeled starch in phosphatase buffer (pH 6.5) containing 1 mg/ml bovine serum albumin in a final volume of 150 μl. […] The amount of phosphate released from each starch suspension was quantified by measuring counts per minute (CPM) of the supernatant on a 1900 TR liquid scintillation counter (Packard). […]
as §1

VHR = VHR (Homo sapiens, UniProt P51452); assay: Library screening at 10 μM; details: read-out: inhibition of VHR
VHR, sequence (P51452 whole entry, species assumed): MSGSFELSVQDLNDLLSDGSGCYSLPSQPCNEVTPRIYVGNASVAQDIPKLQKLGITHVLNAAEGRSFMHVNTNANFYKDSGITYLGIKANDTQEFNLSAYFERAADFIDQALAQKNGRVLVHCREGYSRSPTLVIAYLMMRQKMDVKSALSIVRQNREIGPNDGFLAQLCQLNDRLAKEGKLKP

TgLaforin [3] = target: T1, TgLaforin; assay: Library screening at 10 μM; type: biochemical
TgLaforin [4] = target: T1, TgLaforin; assay: pNPP phosphatase assay
PTP1B = target: T2, PTP1B (Homo sapiens, UniProt P18031); assay: Library screening at 10 μM; details: read-out: inhibition of PTP1B
T2 sequence (P18031 1-435): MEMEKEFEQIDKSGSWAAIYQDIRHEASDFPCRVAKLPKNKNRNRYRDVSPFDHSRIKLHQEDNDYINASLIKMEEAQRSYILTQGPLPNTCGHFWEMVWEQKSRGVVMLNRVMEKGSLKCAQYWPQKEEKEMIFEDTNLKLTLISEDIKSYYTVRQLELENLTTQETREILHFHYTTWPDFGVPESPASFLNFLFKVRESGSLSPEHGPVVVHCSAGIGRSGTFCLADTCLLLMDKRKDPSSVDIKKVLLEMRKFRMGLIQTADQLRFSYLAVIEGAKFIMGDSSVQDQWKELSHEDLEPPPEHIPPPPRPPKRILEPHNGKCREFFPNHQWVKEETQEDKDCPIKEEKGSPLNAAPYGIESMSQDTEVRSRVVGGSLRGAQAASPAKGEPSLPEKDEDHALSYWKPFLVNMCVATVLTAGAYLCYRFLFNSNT

SMILES: OC[C@H]1O[C@H](O[C@H]2[C@H](O)[C@@H](O)[C@@H](O[C@H]3[C@H](O)[C@@H](O)[C@@H](O[C@H]4[C@H](O)[C@@H](O)[C@@H](O[C@H]5[C@H](O)[C@@H](O)[C@@H](O[C@H]6[C@H](O)[C@@H](O)C(O)O[C@@H]6CO)O[C@@H]5CO)O[C@@H]4CO)O[C@@H]3CO)O[C@@H]2CO)[C@H](O)[C@@H](O)[C@@H]1O (stereo partly drawn) [maltohexaose]
binding to W278A mutant (TgCBM W278A): neither mutant was able to bind | binding to K206A mutant (TgCBM K206A): neither mutant was able to bind | Kd (TgCBM): 20000 ± 4000 µM

inhibition at 10 µM (VHR): < 10% | inhibition at 10 µM (PTP1B): < 10%
SMILES: O=C(Nc1ccc(Oc2ccccc2)cc1)C(=O)Nc1ccccc1NC(=O)C(c1ccccc1)S(=O)(=O)O (stereo not drawn) [L319-21-M49, 2-oxo-2-((2-(2-oxo-2-((4-phenoxyphenyl)amino)acetamido)phenyl)amino)-1-phenylethanesulfonic acid]
IC50 (TgLaforin [1]): 5.1 ± 0.4 µM | IC50 (TgLaforin [2]; C3, read-out: IC50 phosphate release from C3 position of starch): 6.7 ± 0.1 µM | IC50 (TgLaforin [2]; C6, read-out: IC50 phosphate release from C6 position of starch): 6.5 ± 1.4 µM | inhibition at 10 µM (TgLaforin [3]): > 90% | IC50 (TgLaforin [4]): 1.5 ± 0.3 µM | specificity for TgLaforin over other phosphatases (TgLaforin [4]; pNPP assay, other phosphatases VHR, PTP1B, CIP): > 100 fold | mechanism of inhibition (Lineweaver-Burk plot) (TgLaforin [4]; pNPP substrate): competitive inhibitor
